Measured values reported in ChEMBL document CHEMBL1909046, “DrugMatrix in vitro pharmacology data”.

Assays:
[1] = DRUGMATRIX: Interleukin IL-1 radioligand binding (ligand: [125I] interleukin 1beta); format: cell membranes, Membrane; conditions: nih3t3; Not Active = under 50% inhibition at 10 µM
[2] = target: Acetylcholinesterase (Homo sapiens, UniProt P22303); test: DRUGMATRIX: Acetylcholinesterase enzyme inhibition (substrate: acetylthiocholine); format: cell-based, HEK293; conditions: hek293; Not Active = under 50% inhibition at 10 µM
Sequence of Acetylcholinesterase (P22303 whole entry): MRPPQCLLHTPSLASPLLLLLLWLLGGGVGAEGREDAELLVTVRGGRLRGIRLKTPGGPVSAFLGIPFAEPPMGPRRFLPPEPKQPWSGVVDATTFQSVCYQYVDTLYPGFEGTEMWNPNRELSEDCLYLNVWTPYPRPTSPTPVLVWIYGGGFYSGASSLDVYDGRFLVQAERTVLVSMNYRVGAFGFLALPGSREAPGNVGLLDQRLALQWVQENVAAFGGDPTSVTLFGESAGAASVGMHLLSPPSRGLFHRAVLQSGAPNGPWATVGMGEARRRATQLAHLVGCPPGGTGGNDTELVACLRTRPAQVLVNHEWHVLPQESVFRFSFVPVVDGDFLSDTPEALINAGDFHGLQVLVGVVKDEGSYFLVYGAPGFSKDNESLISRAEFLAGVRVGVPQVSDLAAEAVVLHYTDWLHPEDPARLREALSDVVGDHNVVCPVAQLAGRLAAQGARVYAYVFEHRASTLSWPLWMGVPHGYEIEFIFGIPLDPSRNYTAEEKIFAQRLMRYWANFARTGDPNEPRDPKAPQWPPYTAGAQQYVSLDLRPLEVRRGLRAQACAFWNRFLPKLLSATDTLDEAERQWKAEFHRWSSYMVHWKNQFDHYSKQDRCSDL

[3] = DRUGMATRIX: Glutamate, NMDA, Agonism radioligand binding (ligand: [3H] CGP-39653); format: cell membranes, Rattus norvegicus, Wistar, Cerebral cortex, Membrane; conditions: Not Active = under 50% inhibition at 10 µM
[4] = target: T1, Cytochrome P450 1A2 (Homo sapiens, UniProt P05177); conditions: bti-tn-5b1-4; note: in other assays of this panel Not Active means under 50% inhibition at 10 µM
T1 sequence (P05177 whole entry): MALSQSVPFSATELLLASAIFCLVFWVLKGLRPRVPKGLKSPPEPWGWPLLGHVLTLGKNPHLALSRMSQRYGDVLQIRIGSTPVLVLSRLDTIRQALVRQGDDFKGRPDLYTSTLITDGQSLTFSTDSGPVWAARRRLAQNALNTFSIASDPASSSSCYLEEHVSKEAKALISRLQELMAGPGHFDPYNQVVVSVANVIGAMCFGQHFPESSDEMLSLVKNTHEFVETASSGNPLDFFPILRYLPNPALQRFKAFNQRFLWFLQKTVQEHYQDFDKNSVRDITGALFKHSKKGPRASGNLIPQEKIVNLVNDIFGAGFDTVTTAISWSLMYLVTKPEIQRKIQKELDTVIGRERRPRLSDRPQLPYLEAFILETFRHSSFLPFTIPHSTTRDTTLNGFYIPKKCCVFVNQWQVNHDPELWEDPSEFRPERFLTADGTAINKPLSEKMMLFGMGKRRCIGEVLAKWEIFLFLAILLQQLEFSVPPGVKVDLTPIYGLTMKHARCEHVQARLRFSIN

[5] = DRUGMATRIX: Platelet-Derived Growth Factor (PDGF) radioligand binding (ligand: [125I] PDGF); format: cell-based; conditions: nih3t3; Not Active = under 50% inhibition at 10 µM
[6] = target: Melanocortin receptor 5 (Homo sapiens, UniProt P33032); format: cell membranes, Membrane; conditions: hek293; note: in other assays of this panel Not Active means under 50% inhibition at 10 µM
Sequence of Melanocortin receptor 5 (P33032 whole entry): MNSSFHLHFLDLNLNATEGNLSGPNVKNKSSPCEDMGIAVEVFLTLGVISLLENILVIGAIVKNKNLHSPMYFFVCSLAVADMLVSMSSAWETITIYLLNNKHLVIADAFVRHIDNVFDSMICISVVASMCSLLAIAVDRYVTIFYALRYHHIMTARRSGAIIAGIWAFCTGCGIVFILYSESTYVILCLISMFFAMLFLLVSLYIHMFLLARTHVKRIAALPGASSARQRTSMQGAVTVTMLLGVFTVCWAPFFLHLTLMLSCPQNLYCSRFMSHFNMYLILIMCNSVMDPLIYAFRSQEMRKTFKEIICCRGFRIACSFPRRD

[7] = target: T2, Type-2 angiotensin II receptor (Homo sapiens, UniProt P50052); format: cell-based; conditions: cho-k1; note: in other assays of this panel Not Active means under 50% inhibition at 10 µM
T2 sequence (P50052 whole entry): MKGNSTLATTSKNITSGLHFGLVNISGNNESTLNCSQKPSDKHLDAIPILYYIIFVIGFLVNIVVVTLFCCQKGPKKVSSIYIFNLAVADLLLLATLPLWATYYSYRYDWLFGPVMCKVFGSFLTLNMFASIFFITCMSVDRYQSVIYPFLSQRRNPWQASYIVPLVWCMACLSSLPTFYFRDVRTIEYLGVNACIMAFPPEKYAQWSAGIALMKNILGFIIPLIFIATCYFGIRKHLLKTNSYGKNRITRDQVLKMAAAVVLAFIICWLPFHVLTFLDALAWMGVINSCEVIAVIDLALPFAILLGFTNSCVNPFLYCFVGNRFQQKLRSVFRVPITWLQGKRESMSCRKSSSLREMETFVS

[8] = target: T3, Alpha-1B adrenergic receptor (Rattus norvegicus, UniProt P15823); test: DRUGMATRIX: Alpha-1B adrenergic receptor radioligand binding (ligand: prazosin); format: cell membranes, Wistar, Liver, Membrane; conditions: Not Active = under 50% inhibition at 10 µM
T3 sequence (P15823 whole entry): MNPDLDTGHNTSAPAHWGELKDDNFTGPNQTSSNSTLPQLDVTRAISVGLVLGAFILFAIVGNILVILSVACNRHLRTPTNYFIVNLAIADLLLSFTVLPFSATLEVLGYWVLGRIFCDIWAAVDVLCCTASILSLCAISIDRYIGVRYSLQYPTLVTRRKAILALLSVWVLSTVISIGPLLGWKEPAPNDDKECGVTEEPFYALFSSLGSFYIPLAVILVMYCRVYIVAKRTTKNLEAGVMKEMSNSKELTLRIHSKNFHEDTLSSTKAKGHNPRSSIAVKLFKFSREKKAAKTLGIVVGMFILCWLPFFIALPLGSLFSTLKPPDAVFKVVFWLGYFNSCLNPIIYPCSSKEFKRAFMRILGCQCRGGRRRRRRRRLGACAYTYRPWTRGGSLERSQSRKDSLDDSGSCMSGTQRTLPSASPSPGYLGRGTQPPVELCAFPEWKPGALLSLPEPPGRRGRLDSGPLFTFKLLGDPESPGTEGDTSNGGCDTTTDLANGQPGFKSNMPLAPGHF

C[C@H]1O[C@@H](O[C@H]2[C@@H](O)C[C@H](O[C@H]3[C@@H](O)C[C@H](O[C@H]4CC[C@@]5(C)[C@H](CC[C@@H]6[C@@H]5CC[C@]5(C)[C@@H](C7=CC(=O)OC7)CC[C@]65O)C4)O[C@@H]3C)O[C@@H]2C)C[C@H](O)[C@@H]1O [DIGITOXIN]
Not Active: IC50 [1] | Ki [1] | IC50 [2] | IC50 [3] | Ki [3] | IC50 [4] | Ki [4] | IC50 [5] | Ki [5] | IC50 [6] | IC50 [7] | IC50 [8]

CCN1CC(CCN2CCOCC2)C(c2ccccc2)(c2ccccc2)C1=O (centres undefined) [DOXAPRAM]
Not Active: IC50 [1] | Ki [1] | IC50 [2] | IC50 [3] | Ki [3] | IC50 [4] | Ki [4] | IC50 [5] | Ki [5] | IC50 [6] | IC50 [7] | IC50 [8]

Cn1c(=O)c2c(ncn2CC2OCCO2)n(C)c1=O [DOXOFYLLINE]
Not Active: IC50 [1] | Ki [1] | IC50 [2] | IC50 [3] | Ki [3] | IC50 [4] | Ki [4] | IC50 [5] | Ki [5] | IC50 [6] | IC50 [7] | IC50 [8]

COc1cccc2c1C(=O)c1c(O)c3c(c(O)c1C2=O)C[C@@](O)(C(=O)CO)C[C@@H]3O[C@H]1C[C@H](N)[C@H](O)[C@H](C)O1 [DOXORUBICIN]
Not Active: IC50 [1] | Ki [1] | IC50 [2] | IC50 [3] | Ki [3] | IC50 [4] | Ki [4] | IC50 [5] | Ki [5] | IC50 [6] | IC50 [7] | IC50 [8]

COc1cccc2c1C(=O)c1c(O)c3c(c(O)c1C2=O)C[C@@](O)(C(=O)CO)C[C@@H]3O[C@H]1C[C@H](N)[C@@H](O)[C@H](C)O1 [EPIRUBICIN]
Not Active: IC50 [1] | Ki [1] | IC50 [2] | IC50 [3] | Ki [3] | IC50 [4] | Ki [4] | IC50 [5] | Ki [5] | IC50 [6] | IC50 [7] | IC50 [8]

C[C@]12CC[C@@H]3c4ccc(OC(=O)c5ccccc5)cc4CC[C@H]3[C@@H]1CC[C@@H]2O [ESTRADIOL BENZOATE]
Not Active: IC50 [1] | Ki [1] | IC50 [2] | IC50 [3] | Ki [3] | IC50 [4] | Ki [4] | IC50 [5] | Ki [5] | IC50 [6] | IC50 [7] | IC50 [8]

C[C@]12CC[C@@H]3c4ccc(O)cc4CC[C@H]3[C@@H]1CC[C@@H]2O [ESTRADIOL]
Not Active: IC50 [1] | Ki [1] | IC50 [2] | IC50 [3] | Ki [3] | IC50 [4] | Ki [4] | IC50 [5] | Ki [5] | IC50 [6] | IC50 [7] | IC50 [8]

CC[C@@H](CO)NCCN[C@@H](CC)CO [ETHAMBUTOL]
Not Active: IC50 [1] | Ki [1] | IC50 [2] | IC50 [3] | Ki [3] | IC50 [4] | Ki [4] | IC50 [5] | Ki [5] | IC50 [6] | IC50 [7] | IC50 [8]

CC1(C)O[C@@H]2C[C@H]3[C@@H]4C[C@H](F)C5=CC(=O)C=C[C@]5(C)[C@H]4[C@@H](O)C[C@]3(C)[C@]2(C(=O)CO)O1 [FLUNISOLIDE]
Not Active: IC50 [1] | Ki [1] | IC50 [2] | IC50 [3] | Ki [3] | IC50 [4] | Ki [4] | IC50 [5] | Ki [5] | IC50 [6] | IC50 [7] | IC50 [8]

CC1(C)O[C@@H]2C[C@H]3[C@@H]4C[C@H](F)C5=CC(=O)C=C[C@]5(C)[C@@]4(F)[C@@H](O)C[C@]3(C)[C@]2(C(=O)CO)O1 [FLUOCINOLONE ACETONIDE]
Not Active: IC50 [1] | Ki [1] | IC50 [2] | IC50 [3] | Ki [3] | IC50 [4] | Ki [4] | IC50 [5] | Ki [5] | IC50 [6] | IC50 [7] | IC50 [8]

CC1(C)O[C@@H]2C[C@H]3[C@@H]4C[C@H](F)C5=CC(=O)CC[C@]5(C)[C@H]4[C@@H](O)C[C@]3(C)[C@]2(C(=O)CO)O1 [FLURANDRENOLIDE]
Not Active: IC50 [1] | Ki [1] | IC50 [2] | IC50 [3] | Ki [3] | IC50 [4] | Ki [4] | IC50 [5] | Ki [5] | IC50 [6] | IC50 [7] | IC50 [8]

Cc1ccc(S(=O)(=O)NC(=O)NN2CC3CCCC3C2)cc1 (centres undefined) [GLICLAZIDE]
Not Active: IC50 [1] | Ki [1] | IC50 [2] | IC50 [3] | Ki [3] | IC50 [4] | Ki [4] | IC50 [5] | Ki [5] | IC50 [6] | IC50 [7] | IC50 [8]
